For series [1] the following is noted: 293.15 K; 101.33 kPa; Liquid.
The nature of series [2]: refractive index (Na D-line) (dimensionless). As to conditions: 293.15 K; 101.33 kPa; Liquid.

Numbers after ± are expanded uncertainties.

Usually mass density stands for the mass of a sample divided by its volume. Broadly, the refractive index is the speed of light in vacuum divided by its phase velocity in the sample. Take `CC(=O)c1ccccc1` [acetophenone]: the mass density in series [1] is recorded as 1027.93 ± 0.46 kg/m3. In series [2], the refractive index is listed as 1.5336 ± 0.0013.

Consider `CCCCCCO` [hexan-1-ol], for which the mass density in series [1] is on record as 818.84 ± 0.75 kg/m3. Further, the refractive index in series [2] worked out at 1.4178 ± 0.0013.

`CCOC(=O)OCC` [diethyl carbonate]: the mass density in series [1] is on record as 974.65 ± 0.29 kg/m3. Moreover, the refractive index in series [2] is on record as 1.3845 ± 0.0012.
